From ChEMBL document CHEMBL5518174 (Eur J Med Chem, 2024)

Columns and labels:
[1] = Upregulation of acetylated H4 protein expression in human NCI-H1975 cells assessed as fold change at 0.1 uM incubated for 24 hrs by immunoblotting analysis (reference value: 1); type: functional
[2] = Effect on HDAC4 protein expression in human NCI-H1975 cells assessed as fold change at 0.05 uM incubated for 24 hrs by immunoblotting analysis (reference value: 1); type: functional
[3] = Effect on HDAC11 protein expression in human NCI-H1975 cells assessed as fold change at 0.1 uM incubated for 24 hrs by immunoblotting analysis (reference value: 1); type: functional
[4] = Downregulation of HDAC1 protein expression in human MDA-MB-231 cells assessed as fold change at 0.1 uM incubated for 24 hrs by immunoblotting analysis (reference value: 1); type: functional
NCI-H1975 = assay: Antitumor activity against human NCI-H1975 cells xenografted in athymic nude BALB/c mouse assessed as average tumor size at 6 mg/kg, ip administered 5 times a week for 3 weeks and measured on day 22 (reference value: 776.4 +/- 118.1 mm3); type: functional; conditions: time 22 day
[5] = Toxicity in athymic nude BALB/c mouse xenografted with human NCI-H1975 cells assessed as reduction in body weight at 6 mg/kg, ip administered 5 times a week for 3 weeks and measured on day 22; type: organism-based; conditions: in vivo, 528 h, time 22 day
[6] = Downregulation of HDAC11 protein expression in human MDA-MB-231 cells assessed as fold change at 0.05 uM incubated for 24 hrs by immunoblotting analysis (reference value: 1); type: functional
Histone deacetylase = assay: Inhibition of HDAC in human HeLa cells nuclear extract; type: subcellular, Nucleus
[7] = molecular target: T1, Protein deacetylase HDAC6 (Homo sapiens, UniProt Q9UBN7); assay: Inhibition of recombinant human HDAC6 using acetylated luminogenic substrate incubated for 10 mins by ultra-glo recombinant firefly luciferase based luminescence assay
T1 sequence (Q9UBN7 whole entry): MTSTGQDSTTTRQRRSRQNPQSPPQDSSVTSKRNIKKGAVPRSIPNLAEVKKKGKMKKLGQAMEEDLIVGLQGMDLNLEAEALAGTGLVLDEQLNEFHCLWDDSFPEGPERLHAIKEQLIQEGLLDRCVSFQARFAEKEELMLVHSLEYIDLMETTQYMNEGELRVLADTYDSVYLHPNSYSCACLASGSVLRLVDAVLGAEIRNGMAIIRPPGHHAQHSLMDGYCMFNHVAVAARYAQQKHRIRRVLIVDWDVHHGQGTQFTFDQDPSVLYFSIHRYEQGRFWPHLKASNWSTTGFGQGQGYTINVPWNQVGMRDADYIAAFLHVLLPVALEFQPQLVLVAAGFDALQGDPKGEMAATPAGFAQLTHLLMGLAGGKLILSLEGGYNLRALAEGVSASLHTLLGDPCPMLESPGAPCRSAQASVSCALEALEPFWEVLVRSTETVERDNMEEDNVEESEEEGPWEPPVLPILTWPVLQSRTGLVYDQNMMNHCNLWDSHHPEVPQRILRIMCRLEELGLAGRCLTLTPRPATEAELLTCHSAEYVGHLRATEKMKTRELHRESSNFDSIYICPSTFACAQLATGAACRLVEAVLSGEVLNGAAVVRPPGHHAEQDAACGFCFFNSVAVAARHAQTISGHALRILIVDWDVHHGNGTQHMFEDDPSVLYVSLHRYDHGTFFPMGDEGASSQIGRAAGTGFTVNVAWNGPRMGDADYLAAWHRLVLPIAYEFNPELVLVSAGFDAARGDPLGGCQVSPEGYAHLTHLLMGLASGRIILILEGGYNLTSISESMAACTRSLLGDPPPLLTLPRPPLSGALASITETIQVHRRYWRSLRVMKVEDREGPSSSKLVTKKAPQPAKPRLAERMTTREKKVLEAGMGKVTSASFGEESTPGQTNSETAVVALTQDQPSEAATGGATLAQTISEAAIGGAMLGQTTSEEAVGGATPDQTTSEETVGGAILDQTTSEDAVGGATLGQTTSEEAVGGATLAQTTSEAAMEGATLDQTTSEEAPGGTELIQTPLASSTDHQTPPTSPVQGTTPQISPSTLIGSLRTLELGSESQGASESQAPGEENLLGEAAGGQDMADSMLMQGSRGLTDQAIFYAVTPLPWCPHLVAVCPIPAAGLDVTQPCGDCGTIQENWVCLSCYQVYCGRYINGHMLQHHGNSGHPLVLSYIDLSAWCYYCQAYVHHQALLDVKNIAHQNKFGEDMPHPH

[8] = Effect on HDAC2 protein expression in human MDA-MB-231 cells assessed as fold change at 0.1 uM incubated for 24 hrs by immunoblotting analysis (reference value: 1); type: functional
[9] = Upregulation of acetylated H3 protein expression in human NCI-H1975 cells assessed as fold change at 0.1 uM incubated for 24 hrs by immunoblotting analysis (reference value: 1); type: functional
Histone deacetylase 1 = Histone deacetylase 1 (Homo sapiens, UniProt Q13547); assay: Inhibition of recombinant human HDAC1 using acetylated luminogenic substrate incubated for 10 mins by ultra-glo recombinant firefly luciferase based luminescence assay
Chain of Histone deacetylase 1 (Q13547 whole entry): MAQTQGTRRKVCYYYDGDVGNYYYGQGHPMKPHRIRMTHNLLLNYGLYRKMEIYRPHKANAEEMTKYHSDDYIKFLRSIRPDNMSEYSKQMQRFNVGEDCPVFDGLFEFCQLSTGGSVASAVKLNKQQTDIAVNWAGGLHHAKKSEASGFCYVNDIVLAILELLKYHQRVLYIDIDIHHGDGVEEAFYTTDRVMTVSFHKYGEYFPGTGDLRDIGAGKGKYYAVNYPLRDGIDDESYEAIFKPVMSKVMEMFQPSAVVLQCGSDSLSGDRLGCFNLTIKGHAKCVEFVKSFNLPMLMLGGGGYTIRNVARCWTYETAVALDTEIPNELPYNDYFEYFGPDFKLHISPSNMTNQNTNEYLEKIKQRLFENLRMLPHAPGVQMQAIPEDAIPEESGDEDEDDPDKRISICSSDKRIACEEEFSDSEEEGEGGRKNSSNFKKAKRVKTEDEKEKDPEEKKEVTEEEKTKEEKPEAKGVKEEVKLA

[10] = Downregulation of HDAC1 protein expression in human MDA-MB-231 cells assessed as fold change at 0.05 uM incubated for 24 hrs by immunoblotting analysis (reference value: 1); type: functional
[11] = Upregulation of acetylated H3 protein expression in human NCI-H1975 cells assessed as fold change at 0.05 uM incubated for 24 hrs by immunoblotting analysis (reference value: 1); type: functional
[12] = Toxicity in athymic nude BALB/c mouse xenografted with human NCI-H1975 cells assessed as effect on creatinine level at 6 mg/kg, ip administered 5 times a week for 3 weeks and measured on day 22; type: organism-based; conditions: in vivo, 528 h, time 22 day
[13] = Effect on HDAC2 protein expression in human MDA-MB-231 cells assessed as fold change at 0.05 uM incubated for 24 hrs by immunoblotting analysis (reference value: 1); type: functional
[14] = Downregulation of HDAC7 protein expression in human NCI-H1975 cells assessed as fold change at 0.1 uM incubated for 24 hrs by immunoblotting analysis (reference value: 1); type: functional
[15] = Downregulation of HDAC7 protein expression in human NCI-H1975 cells assessed as fold change at 0.05 uM incubated for 24 hrs by immunoblotting analysis (reference value: 1); type: functional
[16] = Upregulation of acetylated H3 protein expression in human MDA-MB-231 cells assessed as fold change at 0.05 uM incubated for 24 hrs by immunoblotting analysis (reference value: 1); type: functional
Histone deacetylase 9 = Histone deacetylase 9 (Homo sapiens, UniProt Q9UKV0); assay: Inhibition of recombinant human HDAC9 using acetylated luminogenic substrate incubated for 10 mins by ultra-glo recombinant firefly luciferase based luminescence assay
Chain of Histone deacetylase 9 (Q9UKV0 whole entry): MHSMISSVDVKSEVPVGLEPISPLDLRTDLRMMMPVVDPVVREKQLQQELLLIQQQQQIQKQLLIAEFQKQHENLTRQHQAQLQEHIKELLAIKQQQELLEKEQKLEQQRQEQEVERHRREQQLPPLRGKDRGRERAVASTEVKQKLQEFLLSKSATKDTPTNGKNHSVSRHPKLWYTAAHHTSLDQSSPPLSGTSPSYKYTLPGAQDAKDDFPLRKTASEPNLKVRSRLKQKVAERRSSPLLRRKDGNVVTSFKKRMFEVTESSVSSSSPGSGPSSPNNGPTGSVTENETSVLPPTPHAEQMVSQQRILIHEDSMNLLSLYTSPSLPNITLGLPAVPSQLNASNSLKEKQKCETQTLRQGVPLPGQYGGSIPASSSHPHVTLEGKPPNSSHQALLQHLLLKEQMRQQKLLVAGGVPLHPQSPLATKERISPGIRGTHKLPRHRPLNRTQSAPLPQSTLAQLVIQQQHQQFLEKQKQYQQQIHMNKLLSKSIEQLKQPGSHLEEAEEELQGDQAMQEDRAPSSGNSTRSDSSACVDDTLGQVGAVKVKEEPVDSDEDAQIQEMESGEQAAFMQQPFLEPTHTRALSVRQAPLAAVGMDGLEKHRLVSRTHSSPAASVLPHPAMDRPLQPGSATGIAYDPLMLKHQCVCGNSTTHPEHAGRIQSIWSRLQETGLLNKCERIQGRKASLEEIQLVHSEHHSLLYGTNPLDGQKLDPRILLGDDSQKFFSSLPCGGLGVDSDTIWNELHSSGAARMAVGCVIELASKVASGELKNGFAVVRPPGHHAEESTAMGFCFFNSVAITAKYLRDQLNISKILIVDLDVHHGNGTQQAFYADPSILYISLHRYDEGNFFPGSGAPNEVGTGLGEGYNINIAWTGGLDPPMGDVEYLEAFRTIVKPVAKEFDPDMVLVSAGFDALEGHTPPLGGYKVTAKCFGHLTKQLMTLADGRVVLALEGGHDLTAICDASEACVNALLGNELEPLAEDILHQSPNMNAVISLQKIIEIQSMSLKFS

[17] = Toxicity in athymic nude BALB/c mouse xenografted with human MDA-MB-231 cells assessed as effect on AST level in serum at 3 mg/kg, ip administered 5 times a week for 7 weeks; type: organism-based; conditions: in vivo, 1176 h
[18] = Effect on HDAC10 protein expression in human NCI-H1975 cells assessed as fold change at 0.05 uM incubated for 24 hrs by immunoblotting analysis (reference value: 1); type: functional

- IC50 (Histone deacetylase): 40 nM
- IC50 [7]: 10.8 nM
- IC50 (Histone deacetylase 1): 5.1 nM
- IC50 (Histone deacetylase 9): 19.7 nM
Structure (SMILES): CCOc1ccc(-c2nc(C(=O)NCc3ccc(C(=O)NO)cc3)c3[nH]c(=O)n(-c4cccnc4OC)c3n2)cn1
- fold change (FC) [1]: 1.95
- fold change (FC) [2]: 1.33
- fold change (FC) [3]: 1.85
- fold change (FC) [4]: 0.88
- Activity (NCI-H1975): 331.8 mm3
- Activity [5]: Non-Toxic
- fold change (FC) [6]: 0.53
- fold change (FC) [8]: 1.25
- fold change (FC) [9]: 2.19
- fold change (FC) [10]: 0.84
- fold change (FC) [11]: 1.77
- Activity [12]: Non-Toxic
- fold change (FC) [13]: 1.18
- fold change (FC) [14]: 0.79
- fold change (FC) [15]: 0.94
- fold change (FC) [16]: 1.29
- Activity [17]: Non-Toxic
- fold change (FC) [18]: 1.09
